According to patent US20250032383A1, “PERSONAL CARE COMPOSITION” (Conopco, Inc., d/b/a UNILEVER, priority 2021, published 2025):

Test system: MelaKuits® living skin equivalent models
Assay: skin brightening efficacy in UVB-irradiated living skin equivalent models, lightness (L*) by DSM II Color Meter
Format: cell-based
Method: The skin brightening efficacy were evaluated by using MelaKuits® living skin equivalent models (Biocell, Xi'an, China). A series of identical living skin equivalent models were constructed by following manufacturer's instruction. After the models were constructed, the models were irradiated by UVB with an energy density of 50 mJ/cm^2, followed by culturing in fresh medium with or without actives for one day. Such irradiating and culturing process were repeated by using refreshed same medium for seven times. The lightness (L*) of each model were measured by using a DSM II Color Meter. The measurements of lightness were repeated at least three times. Similar experiments were conducted as that in Example 1 except that niacinamide was used and different batch of live equivalent models were used. The original lightness of the live equivalent models was different from that in Example 1.

CCCCCCC(O)CCCCCCCCCCC(=O)O (stereo not drawn) [12-HSA, 12-hydroxystearic acid]
Average lightness (L*) (Example 1 batch, UVB 50 mJ/cm^2, irradiating and culturing repeated seven times, 10 μM of 12-HSA in medium (UVB + medium only 32.4; blank control 43.4)): 35.2

NC(=O)c1cccnc1 [niacinamide, reference compound]
Average lightness (L*) (Example 2, different batch of models, UVB, 3 wt % of niacinamide in medium (UVB + medium only 66.86; blank control 71.43)): 71.15

Lysine carboxymethyl cysteinate [LCC]
improvement of the skin brightening efficacy of niacinamide (in words) (LCC 0.27 wt % added to 3 wt % niacinamide, Table 2): not capable of improving the skin brightening efficacy of niacinamide
